Experimental data published in the supplement of paper PMC8149375.

Columns and labels:
Details in all cases: treatment: drug alone; 5 days
A498 [1] = test: GI50, drug alone; higher = less potent
Description: (§1)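 Primary HTS: 8 RCC cell lines treated with 8 doses (up to 10 uM) of each library drug alone for 5 days; viability read by CellTiter-Glo and normalised to DMSO. GI50 was fitted with XLfit (4-parameter), AUC is the area under the dose-response curve, and minimum viability is the lowest fraction of DMSO viability across doses.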

769-P [2] = test: GI50, drug alone; higher = less potent
Description: as §1

SN12C [3] = test: GI50, drug alone; higher = less potent
Description: as §1

CAKI-1 [4] = test: GI50, drug alone; higher = less potent
Description: as §1

TK-10 [5] = test: GI50, drug alone; higher = less potent
Description: as §1

786-O [6] = test: GI50, drug alone; higher = less potent
Description: as §1

UO-31 [7] = test: GI50, drug alone; higher = less potent
Description: as §1

ACHN [8] = test: GI50, drug alone; higher = less potent
Description: as §1

A498 [9] = test: minimum viability across doses, drug alone, relative to DMSO (fraction); higher = less growth inhibition
Description: as §1

769-P [10] = test: as above
Description: as §1

SN12C [11] = test: as above
Description: as §1

CAKI-1 [12] = test: as above
Description: as §1

TK-10 [13] = test: as above
Description: as §1

786-O [14] = test: as above
Description: as §1

UO-31 [15] = test: as above
Description: as §1

ACHN [16] = test: as above
Description: as §1

A498 [17] = test: AUC of dose-response viability curve, drug alone (arbitrary (AUC of normalised viability)); higher = less growth inhibition
Description: as §1

769-P [18] = test: as above
Description: as §1

SN12C [19] = test: as above
Description: as §1

CAKI-1 [20] = test: as above
Description: as §1

TK-10 [21] = test: as above
Description: as §1

786-O [22] = test: as above
Description: as §1

UO-31 [23] = test: as above
Description: as §1

ACHN [24] = test: as above
Description: as §1

| SMILES | GI50, drug alone (A498 [1]) [µM] | GI50, drug alone (769-P [2]) [µM] | GI50, drug alone (SN12C [3]) [µM] | GI50, drug alone (CAKI-1 [4]) [µM] | GI50, drug alone (TK-10 [5]) [µM] | GI50, drug alone (786-O [6]) [µM] | GI50, drug alone (UO-31 [7]) [µM] | GI50, drug alone (ACHN [8]) [µM] | minimum viability across doses (A498 [9]) | minimum viability across doses (769-P [10]) | minimum viability across doses (SN12C [11]) | minimum viability across doses (CAKI-1 [12]) | minimum viability across doses (TK-10 [13]) | minimum viability across doses (786-O [14]) | minimum viability across doses (UO-31 [15]) | minimum viability across doses (ACHN [16]) | AUC of dose-response viability curve (A498 [17]) | AUC of dose-response viability curve (769-P [18]) | AUC of dose-response viability curve (SN12C [19]) | AUC of dose-response viability curve (CAKI-1 [20]) | AUC of dose-response viability curve (TK-10 [21]) | AUC of dose-response viability curve (786-O [22]) | AUC of dose-response viability curve (UO-31 [23]) | AUC of dose-response viability curve (ACHN [24]) |
| --- | --- | --- | --- | --- | --- | --- | --- | --- | --- | --- | --- | --- | --- | --- | --- | --- | --- | --- | --- | --- | --- | --- | --- | --- |
| COc1cc(OC)c(/C=C/S(=O)(=O)Cc2ccc(OC)c(NCC(=O)[O][Na])c2)c(OC)c1 | 0.0912 | 0.0821 | 0.216 | 0.0743 | 0.327 | 0.0233 | 0.0855 | 0.123 | 0.154 | 0.0669 | 0.124 | 0.119 | 0.273 | 0.00295 | 0.0069 | 0.102 | 1.91 | 1.49 | 2.01 | 1.63 | 2.13 | 0.88 | 1.46 | 1.7 |
| COc1cc2ncnc(Nc3cccc(Br)c3)c2cc1OC.Cl | > 10 | 1.49 | > 10 | 8.68 | 1.36 | 6.69 | 6.95 | 0.582 | 0.923 | 0.357 | 0.825 | 0.378 | 0.181 | 0.00889 | 0.0153 | 0.268 | 4.63 | 2.36 | 3.17 | 2.92 | 2.36 | 2.81 | 4.18 | 2.07 |
| CNC(=O)c1ccc(C)c(-n2c(C)cc(OCc3ccc(F)cc3F)c(Br)c2=O)c1 | > 10 | > 10 | > 10 | > 10 | > 10 | < 0.003 | > 10 | 4.72 | 1.12 | 0.765 | 0.738 | 0.705 | 0.596 | 0.437 | 0.835 | 0.464 | 4.54 | 3.15 | 2.94 | 3.1 | 2.51 | 1.88 | 3.74 | 2.53 |
| CN(c1ncccc1CNc1nc(Nc2ccc3c(c2)CC(=O)N3)ncc1C(F)(F)F)S(C)(=O)=O.O=S(=O)(O)c1ccccc1 | 7.73 | 4.89 | 3.88 | 5.15 | 4.46 | 0.21 | 4.55 | 2.59 | 0.018 | 0.0576 | 0.0169 | 0.0631 | 0.132 | 0.00443 | 0.0117 | 0.0138 | 3.68 | 3.06 | 2.94 | 3.34 | 2.8 | 1.79 | 3.81 | 2.86 |
| CC(=O)NCC(=O)N1[C@H]2CC[C@H]1c1cc(Nc3ncc(C(F)(F)F)c(NC4CCC4)n3)ccc12 | 4.77 | 0.375 | 0.557 | 0.173 | 0.725 | 0.0151 | 2.64 | 0.0806 | 0.0256 | 0.0288 | 0.0115 | 0.123 | 0.128 | 0.0093 | 0.0196 | 0.0112 | 3.32 | 2.09 | 2.12 | 1.81 | 2.18 | 0.907 | 2.54 | 1.5 |
| NCC(=O)Nc1ccc(-n2nc(C(F)(F)F)cc2-c2ccc3c(ccc4ccccc43)c2)cc1 | 3.22 | 3.77 | 4.07 | 4.52 | 4.25 | 1.62 | 0.928 | 4.51 | 0.0189 | 0.0386 | 0.00771 | 0.0096 | 0.326 | 0.00641 | 0.00932 | 0.0447 | 3.01 | 2.96 | 3.13 | 3.25 | 2.74 | 2.29 | 2.76 | 3.11 |
| OCCn1cc(-c2cnc3nnn(Cc4ccc5ncccc5c4)c3n2)cn1 | > 10 | > 10 | > 10 | > 10 | > 10 | > 10 | > 10 | > 10 | 0.984 | 0.883 | 0.879 | 0.615 | 0.804 | 1.01 | 1.15 | 0.542 | 4.04 | 3.3 | 3.37 | 2.32 | 3.18 | 4 | 4.37 | 2.48 |
| O=C(NOCC(O)CO)c1cc(Br)c(F)c(F)c1Nc1ccc(I)cc1F (stereo unspecified) | > 10 | 4.98 | > 10 | 1.25 | 2.84 | 0.448 | > 10 | 1.99 | 0.89 | 0.427 | 0.602 | 0.202 | 0.419 | 0.263 | 0.816 | 0.372 | 3.58 | 2.62 | 2.83 | 2.32 | 2.4 | 1.94 | 3.29 | 2.42 |
| O=c1cc(N2CCOCC2)oc2c(-c3cccc4c3sc3ccccc34)cccc12 | > 10 | 9.84 | > 10 | 2.78 | 9.09 | 3.26 | > 10 | 6.82 | 0.62 | 0.489 | 0.561 | 0.184 | 0.447 | 0.0967 | 0.476 | 0.35 | 3.5 | 3.36 | 3.26 | 2.74 | 3.15 | 2.69 | 3.93 | 3.44 |
| O=C(NOC[C@H](O)CO)c1ccc(F)c(F)c1Nc1ccc(I)cc1F | 3.71 | 0.928 | 2.34 | 0.32 | 0.848 | 0.221 | 3.24 | 0.857 | 0.455 | 0.282 | 0.389 | 0.161 | 0.348 | 0.373 | 0.257 | 0.359 | 2.54 | 2.27 | 2.31 | 1.95 | 2.1 | 1.88 | 2.63 | 2.15 |
| O=c1cc(N2CCOCC2)oc2c(-c3ccccc3)cccc12 | > 10 | > 10 | > 10 | > 10 | > 10 | > 10 | > 10 | > 10 | 0.929 | 0.617 | 0.765 | 0.642 | 0.684 | 0.559 | 0.858 | 0.723 | 3.75 | 3.1 | 3.36 | 3.37 | 2.97 | 2.62 | 3.98 | 2.91 |
| COc1cccc(-c2cc(=O)c3ccccc3o2)c1N | > 10 | > 10 | > 10 | > 10 | > 10 | > 10 | > 10 | > 10 | 1.03 | 0.903 | 0.873 | 0.83 | 0.817 | 0.69 | 1.36 | 0.861 | 4.28 | 3.39 | 3.4 | 3.19 | 3.09 | 2.79 | 5.36 | 3.35 |
| C=CC(=O)N1CCC[C@@H](n2nc(-c3ccc(Oc4ccccc4)cc3)c3c(N)ncnc32)C1 | > 10 | 1.83 | > 10 | 7.05 | 1.43 | > 10 | > 10 | 3.93 | 0.946 | 0.301 | 0.706 | 0.335 | 0.225 | 0.529 | 0.949 | 0.394 | 6.43 | 2.53 | 2.88 | 3.19 | 2.31 | 2.3 | 4.29 | 2.53 |
| CN1CCN(c2ccc([N+](=O)[O-])c3no[n+]([O-])c23)CC1 | > 10 | > 10 | > 10 | > 10 | > 10 | > 10 | > 10 | > 10 | 0.889 | 0.865 | 0.832 | 0.881 | 0.3 | 0.536 | 0.867 | 0.822 | 3.92 | 2.59 | 3.13 | 3.27 | 2.91 | 2.38 | 3.8 | 2.98 |
| Cc1[nH]c(/C=C2\C(=O)Nc3ccc(S(=O)(=O)Cc4c(Cl)cccc4Cl)cc32)c(C)c1C(=O)N1CCC[C@@H]1CN1CCCC1 | 8.15 | 4.02 | 4.02 | 3.83 | 4.44 | 4.16 | > 10 | 3.83 | 0.0127 | 0.00582 | 0.00551 | 0.00618 | 0.00282 | 0.0112 | 0.0156 | 0.00233 | 3.88 | 2.89 | 2.93 | 3.17 | 3.12 | 2.86 | 4.41 | 3.18 |
| CC(=O)c1c(C)c2cnc(Nc3ccc(N4CCNCC4)cn3)nc2n(C2CCCC2)c1=O.Cl | > 10 | 0.659 | 7.21 | 0.811 | 1.44 | 3.88 | > 10 | 0.36 | 0.644 | 0.0631 | 0.427 | 0.123 | 0.185 | 0.298 | 0.549 | 0.136 | 4.74 | 2.31 | 3.17 | 2.44 | 2.43 | 2.8 | 4.32 | 2.04 |
| CN(C)C1CCN(C(=O)c2ccc(NC(=O)Nc3ccc(-c4nc(N5CCOCC5)nc(N5CCOCC5)n4)cc3)cc2)CC1 | 0.0932 | 5.33 | 0.05 | 1.18 | 0.472 | 0.13 | 0.451 | 0.99 | 0.162 | 0.162 | 0.112 | 0.0321 | 0.133 | 0.111 | 0.0116 | 0.167 | 1.83 | 3.1 | 1.39 | 2.56 | 2.09 | 1.73 | 2.48 | 2.66 |
| CCN(CC)CCCCNc1ncc2cc(-c3cc(OC)cc(OC)c3)c(NC(=O)NC(C)(C)C)nc2n1 | 6.94 | 9.27 | 8.23 | 0.614 | 4.78 | 2.36 | 7.93 | 0.779 | 0.265 | 0.461 | 0.338 | 0.074 | 0.348 | 0.00314 | 0.128 | 0.0868 | 3.77 | 3.21 | 2.73 | 2.27 | 2.69 | 2.06 | 3.7 | 2.2 |
| COc1ccc(-c2cc3c(C)nc(N)nc3n([C@H]3CC[C@H](OCCO)CC3)c2=O)cn1 | 1.02 | 0.386 | 0.291 | 0.206 | 0.153 | 0.163 | 0.255 | 0.179 | 0.193 | 0.0177 | 0.0766 | 0.0249 | 0.0289 | 0.00335 | 0.00736 | 0.067 | 2.91 | 2.05 | 1.98 | 1.78 | 1.72 | 1.76 | 2.06 | 1.79 |
